Reference: ChEMBL document CHEMBL1629523, “Synthesis and antibacterial activity of C-12 pyrazolinyl spiro ketolides” (2010)
Converted amounts (≈) assume the structure as drawn.

Tests used:
Type in all cases: functional
Staphylococcus aureus [1] = assay: Antibacterial activity against erythromycin-resistant Staphylococcus aureus 5677 by broth microdilution method
Streptococcus pneumoniae [2] = assay: Antibacterial activity against erythromycin-susceptible Streptococcus pneumoniae 2860 by broth microdilution method
Haemophilus influenzae [3] = assay: Antibacterial activity against erythromycin-resistant Haemophilus influenzae 2412 by broth microdilution method
Staphylococcus aureus [4] = assay: Antibacterial activity against erythromycin-susceptible Staphylococcus aureus ATCC 6538p by broth microdilution method
Streptococcus pneumoniae [5] = assay: Antibacterial activity against erythromycin-resistant Streptococcus pneumoniae 1210 by broth microdilution method
Streptococcus pneumoniae [6] = assay: Antibacterial activity against erythromycin-resistant Streptococcus pneumoniae 673 by broth microdilution method
Haemophilus influenzae [7] = assay: Antibacterial activity against erythromycin-susceptible Haemophilus influenzae 5096 by broth microdilution method
Staphylococcus aureus [8] = assay: Antibacterial activity against erythromycin-susceptible Staphylococcus aureus ATCC 29213 by broth microdilution method
Staphylococcus aureus [9] = assay: Antibacterial activity against erythromycin-resistant Staphylococcus aureus AD-08 by broth microdilution method
Streptococcus pneumoniae [10] = assay: Antibacterial activity against erythromycin-resistant Streptococcus pneumoniae 5158 by broth microdilution method
Staphylococcus aureus [11] = assay: Antibacterial activity against erythromycin-resistant Staphylococcus aureus 5676 by broth microdilution method
Staphylococcus aureus [12] = assay: Antibacterial activity against erythromycin-susceptible Staphylococcus aureus 26001 by broth microdilution method

Row | Structure (SMILES) | MIC (Staphylococcus aureus [1]) [µg/mL] | MIC (Streptococcus pneumoniae [2]) [µg/mL] | MIC (Haemophilus influenzae [3]) [µg/mL] | MIC (Staphylococcus aureus [4]) [µg/mL] | MIC (Streptococcus pneumoniae [5]) [µg/mL] | MIC (Streptococcus pneumoniae [6]) [µg/mL] | MIC (Haemophilus influenzae [7]) [µg/mL] | MIC (Staphylococcus aureus [8]) [µg/mL] | MIC (Staphylococcus aureus [9]) [µg/mL] | MIC (Streptococcus pneumoniae [10]) [µg/mL] | MIC (Staphylococcus aureus [11]) [µg/mL] | MIC (Staphylococcus aureus [12]) [µg/mL]
1 | CC[C@H]1OC(=O)[C@H](C)C(=O)[C@H](C)[C@@H](O[C@@H]2O[C@H](C)C[C@H](N(C)C)[C@H]2O)[C@@](C)(OC)C[C@@H](C)C(=O)[C@H](C)[C@@H](O)C12C=NNC2 (some centres not stated) | 8 (≈ 13.1 µM) | 0.5 (≈ 0.817 µM) | > 8 | 0.25 (≈ 0.409 µM) | > 64 | > 64 | 0.06 (≈ 0.0981 µM) | 0.25 (≈ 0.409 µM) | 512 (≈ 837 µM) | > 64 | 4 (≈ 6.54 µM) | 0.12 (≈ 0.196 µM)
2 | CC[C@H]1OC(=O)[C@H](C)C(=O)[C@H](C)[C@@H](O[C@@H]2O[C@H](C)C[C@H](N(C)C)[C@H]2O)[C@](C)(OC)C[C@@H](C)C(=O)[C@H](C)[C@@H](O)C12C=NNC2C (some centres not stated) | 8 (≈ 12.8 µM) | 0.5 (≈ 0.799 µM) | > 8 | 0.25 (≈ 0.399 µM) | > 64 | > 64 | 0.06 (≈ 0.0959 µM) | 0.5 (≈ 0.799 µM) | 512 (≈ 818 µM) | > 64 | 8 (≈ 12.8 µM) | 0.12 (≈ 0.192 µM)
3 | CCOC(=O)C1NN=CC12[C@H](O)[C@@H](C)C(=O)[C@H](C)C[C@@](C)(OC)[C@H](O[C@@H]1O[C@H](C)C[C@H](N(C)C)[C@H]1O)[C@@H](C)C(=O)[C@@H](C)C(=O)O[C@@H]2CC (some centres not stated) | 8 (≈ 11.7 µM) | 0.5 (≈ 0.731 µM) | > 8 | 0.12 (≈ 0.175 µM) | > 64 | 8 (≈ 11.7 µM) | 0.06 (≈ 0.0877 µM) | 0.12 (≈ 0.175 µM) | 512 (≈ 749 µM) | 8 (≈ 11.7 µM) | 8 (≈ 11.7 µM) | 0.12 (≈ 0.175 µM)
4 | CC[C@H]1OC(=O)[C@H](C)C(=O)[C@H](C)[C@@H](O[C@@H]2O[C@H](C)C[C@H](N(C)C)[C@H]2O)[C@](C)(OC)C[C@@H](C)C(=O)[C@H](C)[C@@H](O)C12C=NNC2C(=O)OC (some centres not stated) | 4 (≈ 5.97 µM) | 0.5 (≈ 0.746 µM) | > 8 | 0.12 (≈ 0.179 µM) | > 64 | 8 (≈ 11.9 µM) | 0.06 (≈ 0.0896 µM) | 0.12 (≈ 0.179 µM) | 256 (≈ 382 µM) | 8 (≈ 11.9 µM) | 4 (≈ 5.97 µM) | 0.03 (≈ 0.0448 µM)
5 | CC[C@H]1OC(=O)[C@H](C)[C@@H](O[C@H]2C[C@@](C)(OC)[C@@H](O)[C@H](C)O2)[C@H](C)[C@@H](O[C@@H]2O[C@H](C)C[C@H](N(C)C)[C@H]2O)[C@](C)(OC)C[C@@H](C)C(=O)[C@H](C)[C@@H](O)[C@]1(C)O [CLARITHROMYCIN] | > 1020 | 0.125 (≈ 0.167 µM) | 8 (≈ 10.7 µM) | 0.5 (≈ 0.668 µM) | > 16 | > 16 | 0.06 (≈ 0.0802 µM) | 0.25 (≈ 0.334 µM) | > 1020 | > 16 | > 1020 | ≤ 0.063
6 | CC[C@H]1OC(=O)[C@H](C)[C@@H](O[C@H]2C[C@@](C)(OC)[C@@H](O)[C@H](C)O2)[C@H](C)[C@@H](O[C@@H]2O[C@H](C)C[C@H](N(C)C)[C@H]2O)[C@](C)(O)C[C@@H](C)C(=O)[C@H](C)[C@@H](O)[C@]1(C)O [ERYTHROMYCIN] | > 1020 | 0.25 (≈ 0.341 µM) | 4 (≈ 5.45 µM) | 0.5 (≈ 0.681 µM) | > 32 | > 32 | 0.06 (≈ 0.0818 µM) | 0.5 (≈ 0.681 µM) | > 1020 | > 32 | > 1020 | ≤ 0.063
